Converted amounts (≈) assume the structure as drawn.
Experiments:
Mtb CDC1551 = assay: Extracellular Mtb growth on cholesterol, MABA MIC99; type: cell-based, Mycobacterium tuberculosis; settings: Mycobacterium tuberculosis, CDC1551, 336 h; cholesterol as sole carbon source; 2 weeks post-compound treatment; read-out: MABA-MIC99 (W2) CDC1551, cholesterol
Mtb (Erdman) = assay: Extracellular Mtb (Erdman) growth on cholesterol-supplemented (0.01%) media, MABA; type: cell-based, Mycobacterium tuberculosis; settings: Mycobacterium tuberculosis, ERDMAN, 168 h, MABA 1 week post-compound treatment, mean ± SD n = 3, read-out: mixed media IC50 (Erdman)
[1] = system: several human P450 isoforms (panel: CYP1A, CYP2C19, CYP2C9, CYP2D6, CYP3A4); assay: in vitro; type: in vitro ADME
Method: As several P450 isoforms were inhibited as concentrations <5 μM, the compound has potential to cause drug–drug interactions and further optimization of the benzylpyridine scaffold to improve CYP125/142 selectivity would be required for in vivo applications.
Table S8. Inhibition of human liver microsomal P450s. Inhibition constants (IC 50 values, µM) of
following substrates: CYP1A-ethoxyresorufin, CYP2C19- mephenytoin, CYP2C9-tolbutamide, CYP2D6-
dextromethorphan, CYP3A4-midazolam/testosterone.

COc1ccc(CNc2ccc(Cc3ccncc3)cc2)cc1 [5m, N-(4-Methoxybenzyl)-4-(pyridin-4-ylmethyl)aniline]
MIC99 (Mtb CDC1551): 13 µM (≈ 3.96 µg/mL)
IC50 (Mtb (Erdman)): 2900 ± 190 nM
IC50 [1]: < 5000 nM

— paper PMC12305662, “Fragment-Based Development of Small Molecule Inhibitors Targeting Mycobacterium tuberculosis Cholesterol Metabolism” (Journal of Medicinal Chemistry, 2025)
